In patent US20220265759A1, “COMPOSITION AND METHOD FOR PROMOTING WOUND HEALING” (THE BOARD OF TRUSTEES OF THE UNIVERSITY OF ILLIOIS, priority 2019, published 2022):
Peptide text beside a SMILES is read from it. * marks the point of attachment. Myristoyl = CCCCCCCCCCCCCC(=O)*

Tested on: eNOS
Test: eNOS expression in db/db mouse wounds (western blot)
Assay type: in vivo, db/db mice
Conditions: day 12
Experimental: Immunoblot and Co-Immunoprecipitation (Co-IP). After serum starvation, inhibitors were added 45 minutes prior to stimulation for indicated times at 37° C., and cells were then collected and lysed for western blot analysis. After probing for p-eNOS (Ser1177), p-p85 (Tyr458), p-Src (Tyr 416), and p-ERK (T202/Y204), the same blots were stripped and re-probed for total proteins mentioned above. For detection of CCL28-induced protein levels of β-catenin and Bcl-2, near-confluent endothelial cells were incubated with 500 ng/ml CCL28 for 24 hours in EGM-2 medium containing 1% FBS.
Two 8 mm full thickness excisional wounds were made on the dorsal skin of diabetic db/db mice and then 50 μl of 50 μM Myr-CBD7 peptide was topically applied. […] Reduced CCR10-eNOS interaction was also observed in the mouse wounds following treatment with Myr-CBD7 peptide as determined by Co-IP (FIG. 6).

CCCCCCCCCCCCCC(=O)N[C@@H](CCCCN)C(=O)N[C@H](C(=O)N[C@@H](CO)C(=O)N[C@@H](C)C(=O)N[C@@H](CO)C(=O)N[C@@H](CC(C)C)C(=O)N[C@@H](CCSC)C(=O)O)[C@@H](C)CC [Myr-CBD7, myr-KISASLM] (Myristoyl-KISASLM-OH)
eNOS expression in wounds: significantly elevated
